# Data: PMC10622577, “Structural basis for stabilisation of the RAD51 nucleoprotein filament by BRCA2” (Nature Communications, 2023)
# Columns and labels:
# [1] = tested on: wild-type RAD51 NPF; test: SPR of BRC4-induced disassembly of wild-type RAD51 NPF; type: binding, human; details: BRC4 0.1-15 μM, 120 s, CMA buffer pH 7.4, response minima, ss- and dsDNA, n = 3
# Protocol: (§1) We investigated further the effect of the acidic patch mutations on TR2 binding using surface plasmon resonance (SPR). We developed an SPR assay whereby increasing amounts of TR2 peptide were added to RAD51 NPFs that had been assembled on biotinylated DNA coupled to a streptavidin chip (Supplementary Fig. 3A, Supplementary Table 1). […] We used the same SPR assay to assess the effect of the mutations on the ability of BRC4 to disrupt an established filament (Supplementary Fig. 4A, Supplementary Table 1).
# (§2) All SPR experiments were performed using a Biacore T200 instrument and an S-series SA (Streptavidin) sensor chip. A single chip was used to immobilise biotinylated single- and double-stranded DNA in buffer: 25 mM HEPES pH 7.4, 100 mM NaCl, 1 mM EDTA. ssDNA and dsDNA were immobilised in different channels to a signal of 120 RU and 250 RU, respectively.
# (§3) All binding experiments were performed in CMA buffer: 25 mM HEPES pH 7.4, 100 mM NaCl, 2 mM DTT, 2 mM ATP, 5 mM CaCl2, 5 mM MgCl2. 1 μM RAD51 (wild-type, D184A or D184A, D187A mutant proteins) was injected for 120 seconds followed by buffer for 120 seconds at a flow rate of 10 μl/min. TR2 or BRC4 peptides were then injected in a concentration titration series of 0.1, 0.25, 0.5, 0.75, 1, 2, 3, 5, 7.5, 10 and 15 μM for 120 seconds at a flow rate of […] followed by a dissociation time of 240 seconds. […]
# [2] = tested on: RAD51 D184A, D187A NPF; test: SPR of BRC4-induced disassembly of RAD51 D184A, D187A NPF; type: binding, human; details: BRC4 0.1-15 μM, 120 s, CMA buffer pH 7.4, response minima, ss- and dsDNA, n = 3
# Protocol: as §1, §2, §3
# [3] = tested on: RAD51 D184A; test: EMSA of BRC4 disruption of NPF formation, RAD51 D184A; type: binding, human; details: BRC4 pre-mixed with RAD51 10 min, room temperature, before addition of ss- or dsDNA, performed once
# Protocol: (§4) To test whether the acidic patch was also required for BRC4 binding to RAD51, we examined whether the interaction of a BRC4 peptide spanning BRCA2 amino acids 1514 to 1548 was impacted by the D184A and D184A, D187 mutations.
# (§5) To assess RAD51 nucleoprotein (NPF) formation, wild-type and mutant RAD51 proteins were incubated with DNA in buffer: 25 mM HEPES pH 7.5, 150 mM NaCl, 2 mM DTT, 2 mM ATP, 5 mM CaCl2 for 15 minutes at room temperature. For filament binding of the TR2 peptide or His6-MBP-TR2 protein, the RAD51 NPFs were incubated with TR2 for further 5 minutes at room temperature. For filament binding of BRC4, the BRC4 peptide was pre-mixed with RAD51 for 10 minutes at room temperature before addition of DNA. For experiments with mono-streptavidin (mSA)-capped DNA, mSA (Sigma) was added in 5× molar excess of biotin labels for 15 minutes at room temperature prior to the addition of RAD51. Concentrations are provided in figures and DNA sequences for each experiment are reported in Supplementary Table 1.
# (§6) Before electrophoresis, samples were mixed with a 0.5:1 volume of 50% (w/v) sucrose solution and analysed on a pre-run 0.5% (w/v) agarose gel in 0.5× TB buffer at 35 V for 2.5 hours at 4 °C. DNA was visualised by excitation of the fluorescent tag or, in the case of unlabelled DNA, by SYBR Gold staining. […]
# [4] = tested on: RAD51 D184A NPF; test: SPR of BRC4-induced disassembly of RAD51 D184A NPF; type: binding, human; details: BRC4 0.1-15 μM, 120 s, CMA buffer pH 7.4, response minima, ss- and dsDNA, n = 3
# Protocol: as §1, §2, §3
# [5] = tested on: RAD51 D184A, D187A; test: EMSA of BRC4 disruption of NPF formation, RAD51 D184A, D187A; type: binding, human; details: BRC4 pre-mixed with RAD51 10 min, room temperature, before addition of ss- or dsDNA, performed once
# Protocol: as §4, §5, §6
# [6] = molecular target: T1, RAD51;BRCA2 TR2 peptide (Homo sapiens;Homo sapiens, UniProt Q06609;P51587 1-339;, |); test: cryo-EM structure; mSA caps; no bundling; EMSA: 25 mM HEPES pH 7.5, 150 mM NaCl, 2 mM DTT, 2 mM ATP, 5 mM CaCl2, room temperature; SPR: 25 mM HEPES pH 7.4, 100 mM NaCl, 2 mM DTT, 2 mM ATP, 5 mM CaCl2, 5 mM MgCl2; details: tags: untagged (co-expressed with His6-MBP-BRC4, pMBP4-RAD51);; label: 5' biotin on both strands; 3' Cy3 on strand 1; blunt ends, internal mismatched bubble about 10 nt
# [7] = molecular target: T1, RAD51;BRCA2 TR2 peptide; test: cryo-EM structure; mSA caps; EMSA: 25 mM HEPES pH 7.5, 150 mM NaCl, 2 mM DTT, 2 mM ATP, 5 mM CaCl2, room temperature; SPR: 25 mM HEPES pH 7.4, 100 mM NaCl, 2 mM DTT, 2 mM ATP, 5 mM CaCl2, 5 mM MgCl2; details: tags: untagged (co-expressed with His6-MBP-BRC4, pMBP4-RAD51);; label: 5' and 3' biotin
molecule,measurement,setting,value
"EKIKEPTLLGFHTASGKKVKIAKESLDKVKNLFDE [BRC4, BRC4 peptide spanning BRCA2 amino acids 1514 to 1548]",disassembly of an established RAD51 NPF by BRC4,[1],able to induce disassembly of a wild-type RAD51 NPF
same,"disassembly of an established RAD51 NPF by BRC4, reduction relative to wild-type",[2],to a large degree
same,ability of BRC4 to disrupt RAD51 NPF formation,[3],moderately reduced
same,disassembly of an established RAD51 NPF by BRC4 relative to wild-type,[4],moderately reduced
same,ability of BRC4 to disrupt RAD51 NPF formation,[5],severely impaired
50-nt dsDNA doubly biotinylated Cy3 (dsDNA) DNA 1: CCGACTGACGCTCAACATAGGTACCACACGGCGAGCTCGATGCACCTCCA DNA 2: TGGAGGTGCATCGAGCTCGCGACAAACCTTCTATGTTGAGCGTCAGTCGG,binding result,[6],binds
60-nt ssDNA doubly biotinylated (ssDNA) DNA: ATGGTGTGTGTAGGTTAATGTGAGGAGGAGAGGTGAAGAAGGAGGAGAGAAGAAGGAGGC,binding result,[7],binds
